The target of one assay is TEAD1 (Homo sapiens, UniProt P28347). Briefly: TR-FRET (Lipid HTRF) TEAD lipid pocket probe displacement assay, TEAD1. The class given is binding. The note with it: His-tagged TEAD1, biotinylated lipid pocket probe, 4 hours.
Another assay has as its target TEAD3 (Homo sapiens, UniProt Q99594). The assay is described as follows: TR-FRET (Lipid HTRF) TEAD lipid pocket probe displacement assay, TEAD3. It counts as binding. As to conditions: His-tagged TEAD3, biotinylated lipid pocket probe, 4 hours. (Time-resolved FRET reads energy transfer from a long-lived donor to a nearby acceptor.)
The target of the next assay is TEAD2 (Homo sapiens, UniProt Q15562). Briefly: biochemical.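 Note: TR-FRET competition assay with His-tagged TEAD protein and a biotinylated lipid pocket probe, where probe displacement by compound lowers the signal.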
Another assay deals with TEAD4 (Homo sapiens, UniProt Q15561). The assay is described as follows: TR-FRET (Lipid HTRF) TEAD lipid pocket probe displacement assay, TEAD4. It counts as binding. The note with it: His-tagged TEAD4, biotinylated lipid pocket probe, 4 hours.
TEAD4, sequence (Q15561 whole entry, species assumed): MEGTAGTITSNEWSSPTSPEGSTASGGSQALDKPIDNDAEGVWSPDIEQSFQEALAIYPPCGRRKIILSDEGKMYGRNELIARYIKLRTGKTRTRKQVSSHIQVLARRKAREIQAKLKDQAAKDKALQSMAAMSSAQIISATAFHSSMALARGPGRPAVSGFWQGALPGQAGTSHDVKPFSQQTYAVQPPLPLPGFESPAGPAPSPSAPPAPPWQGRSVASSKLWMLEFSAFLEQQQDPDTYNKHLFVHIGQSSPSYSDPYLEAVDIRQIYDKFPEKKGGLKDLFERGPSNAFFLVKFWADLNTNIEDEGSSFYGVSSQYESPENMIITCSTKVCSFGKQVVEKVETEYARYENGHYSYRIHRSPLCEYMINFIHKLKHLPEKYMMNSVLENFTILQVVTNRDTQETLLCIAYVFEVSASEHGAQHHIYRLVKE

TEAD3, sequence (Q99594 whole entry, species assumed): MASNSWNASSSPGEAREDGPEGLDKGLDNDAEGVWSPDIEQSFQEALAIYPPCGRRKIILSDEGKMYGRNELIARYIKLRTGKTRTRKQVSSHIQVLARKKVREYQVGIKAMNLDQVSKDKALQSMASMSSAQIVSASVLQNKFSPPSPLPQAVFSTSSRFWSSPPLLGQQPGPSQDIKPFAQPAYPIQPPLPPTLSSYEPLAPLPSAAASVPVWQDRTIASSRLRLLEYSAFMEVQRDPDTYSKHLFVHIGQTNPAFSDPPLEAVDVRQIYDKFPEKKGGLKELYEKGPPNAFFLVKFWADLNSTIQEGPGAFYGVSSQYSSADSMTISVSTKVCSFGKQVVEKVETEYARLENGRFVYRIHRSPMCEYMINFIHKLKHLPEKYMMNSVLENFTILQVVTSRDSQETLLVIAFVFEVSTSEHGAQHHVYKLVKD
TEAD2, sequence (Q15562 whole entry, species assumed): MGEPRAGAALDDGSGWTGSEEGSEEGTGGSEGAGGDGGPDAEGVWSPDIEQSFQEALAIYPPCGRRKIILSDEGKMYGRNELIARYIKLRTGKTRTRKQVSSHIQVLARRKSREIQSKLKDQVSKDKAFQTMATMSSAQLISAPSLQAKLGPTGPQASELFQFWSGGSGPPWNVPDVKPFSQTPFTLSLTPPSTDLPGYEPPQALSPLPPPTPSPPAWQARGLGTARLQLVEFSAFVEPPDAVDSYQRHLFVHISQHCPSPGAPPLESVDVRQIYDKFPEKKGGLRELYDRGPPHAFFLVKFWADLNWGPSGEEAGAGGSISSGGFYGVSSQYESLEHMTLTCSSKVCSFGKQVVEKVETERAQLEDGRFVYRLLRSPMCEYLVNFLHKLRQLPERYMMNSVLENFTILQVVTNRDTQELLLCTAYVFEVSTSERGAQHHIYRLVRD
TEAD1, sequence (P28347 whole entry, species assumed): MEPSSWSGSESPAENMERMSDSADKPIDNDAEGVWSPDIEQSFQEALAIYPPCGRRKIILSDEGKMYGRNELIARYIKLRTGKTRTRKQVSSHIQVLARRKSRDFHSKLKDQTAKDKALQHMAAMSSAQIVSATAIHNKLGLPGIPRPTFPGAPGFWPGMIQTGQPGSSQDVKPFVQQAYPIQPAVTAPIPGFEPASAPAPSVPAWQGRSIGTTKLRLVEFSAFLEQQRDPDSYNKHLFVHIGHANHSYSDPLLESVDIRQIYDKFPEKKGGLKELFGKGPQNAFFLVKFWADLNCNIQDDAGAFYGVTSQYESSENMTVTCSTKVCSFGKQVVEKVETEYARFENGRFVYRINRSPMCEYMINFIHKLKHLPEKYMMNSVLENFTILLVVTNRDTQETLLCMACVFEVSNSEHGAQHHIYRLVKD
Method for TEAD1: (§1) His-tagged TEAD proteins are pre-incubated with TEAD project compounds for 30 minutes or 4 hours at room temperature. Biotinylated lipid pocket probes are then added to the TEAD/Compound mixture and incubated for 60 minutes at room temperature. The lipid pocket probe competes with the test compound for the TEAD lipid pocket until equilibrium is reached. After 60 minutes, Europium labelled anti-His (Perkin Elmer #AD0110) and XL665 labelled streptavidin (CIS Bio 610SAXAC) are added to the TEAD/test compound/lipid pocket mixture and incubated for 30 minutes or 4 hours. TR-FRET values are then measured using an EnVision multi-label plate reader (Perkin Elmer Cat #2104-001 0A.) If the lipid pocket probe binds to TEAD as expected, a TR-FRET signal results from the proximity of anti-His Eu and XL665. If a TEAD lipid pocket binder such as binds and displaces the lipid pocket probe, the disruption of the TEAD:probe interaction results in a decrease in TR-FRET signal. The potency of compounds as TEAD lipid pocket binders is determined by IC50 value generated using a non-linear 4 parameter curve fit.
Method for TEAD2: as §1
Method for TEAD4: as §1

With `C=CC(=O)NCc1nc(-c2ccc(OC(F)(F)F)cc2)c2nc(C)sc2n1` [Compound 35, N-[[2-methyl-7-[4-(trifluoromethoxy)phenyl]thiazolo[5,4-d]pyrimidin-5-yl]methyl]prop-2-enamide], the IC50 (as a rule, the concentration that inhibits the measured activity by half) at TEAD1 amounted to 11 nM; at TEAD3 it was 790 nM; against TEAD2, 730 nM; on TEAD4, 330 nM.
Regarding `Cn1cnc2c(-c3ccc(OC(F)(F)F)cc3)nc(C3CN(C(=O)C45CC4C5)C3)nc21` (stereo not drawn) [Compound 119, Bicyclo[1.1.0]butan-1-yl(3-(9-methyl-6-(4-(trifluoromethoxy)phenyl)-9H-purin-2-yl)azetidin-1-yl)methanone], the IC50 on TEAD2 was found to be 1300 nM; on TEAD4, 160 nM.
On to `C=C(F)C(=O)N1CC(c2nc(-c3ccc(OC(F)(F)F)cc3)c3ncn(C)c3n2)C1` [Compound 118, 2-Fluoro-1-(3-(9-methyl-6-(4-(trifluoromethoxy)phenyl)-9H-purin-2-yl)azetidin-1-yl)prop-2-en-1-one], for which the IC50 on TEAD1 amounted to 9.5 nM; on TEAD2, 72 nM; on TEAD4 it was 6.7 nM.
In the case of `C=CC(=O)NCc1cc(-c2ccc(OC(F)(F)F)cc2)c2nccnc2c1C#N` [Compound 85, N-((5-Cyano-8-(4-(trifluoromethoxy)phenyl)quinoxalin-6-yl)methyl)acrylamide], the IC50 on TEAD1 came to 78 nM; on TEAD3, 127 nM; on TEAD2, 121 nM; at TEAD4 it was 88.7 nM.
Taken in the same sequence, the figures for `C=CC(=O)NCc1cc(-c2ccc(OC(F)(F)F)cc2)c2ncoc2c1[C@@H](O)CO` (single isomer, unassigned) [Compound 106] were 180 nM, 1000 nM, 24 nM and 180 nM.
`C=CS(=O)(=O)NCc1cc(-c2ccc(OC(F)(F)F)cc2)c2c(c1CO)CCO2` [Compound 19, N-((4-(Hydroxymethyl)-7-(4-(trifluoromethoxy)phenyl)-2,3-dihydrobenzofuran-5-yl)methyl)ethenesulfonamide]: the figures for the IC50 at TEAD1 and at TEAD3 were 4 nM and 8 nM, respectively.
Regarding `C=CC(=O)NCc1cc(-c2ccc(OC(F)(F)F)cc2)c2ncn(C)c2c1C#N` [Compound 27, N-[[4-cyano-3-methyl-7-[4-(trifluoromethoxy)phenyl]benzimidazol-5-yl]methyl]prop-2-enamide], the IC50 at TEAD3 came out at 40.5 nM; on TEAD2, 15 nM; on TEAD4 it was 6.7 nM.
For the compound `C=CC(=O)NCc1cc(-c2ccc(OC(F)(F)F)cc2)c2ncn(C)c2c1C(N)=O` [Compound 76, 3-methyl-5-[(prop-2-enoylamino)methyl]-7-[4-(trifluoromethoxy)phenyl]benzimidazole-4-carboxamide], the IC50 stood at 1300 nM at TEAD3, 230 nM at TEAD2 and 260 nM on TEAD4.
On the same counts, the results for `C=CC(=O)NCc1nc(-c2ccc(OC(F)(F)F)cc2)c2ncsc2n1` [Compound 21, N-[[7-[4-(trifluoromethoxy)phenyl]thiazolo[5,4-d]pyrimidin-5-yl]methyl]prop-2-enamide] are 72.7 nM, 190 nM and 11.9 nM.
For the compound `C=CC(=O)N1CC[C@H](c2nc(-c3ccc(OC(F)(F)F)cc3)c3ncn(C)c3n2)C1` (single isomer, unassigned) [Compound 123], the values for the IC50 at TEAD1, on TEAD3 and against TEAD2 were 17 nM, 80 nM and 7.8 nM, respectively.
Regarding `C=CC(=O)NCc1cc(-c2ccc(OC(F)(F)F)cc2)c2ncn(C)c2c1[C@@H](O)CO` (single isomer, unassigned) [Compound 31], the IC50 at TEAD4 worked out at 55 nM.
For the compound `Cn1cnc2c(-c3ccc(OC(F)(F)F)cc3)nc(C3CN(C(=O)C4=CCC4)C3)nc21` [Compound 115, Cyclobut-1-en-1-yl(3-(9-methyl-6-(4-(trifluoromethoxy)phenyl)-9H-purin-2-yl)azetidin-1-yl)methanone], the IC50 on TEAD3 was 9 nM; against TEAD2, 4.85 nM; on TEAD4, 2.25 nM.
On the same counts, the results for `[2H]C([2H])=C([2H])C(=O)NCc1nc(-c2ccc(OC(F)(F)F)cc2)c2ncsc2n1` [Compound 101, N-((7-(4-(Trifluoromethoxy)phenyl)thiazolo[5,4-d]pyrimidin-5-yl)methyl)acrylamide-2,3,3-d3] are 216 nM, 275 nM and 15.1 nM.
Consider `C=CC(=O)NCc1cc(-c2ccc(OC(F)(F)F)cc2)c2nccnc2c1[C@H](O)CO` (single isomer, unassigned) [Compound 79], for which the results for the IC50 at TEAD3 and against TEAD2 were 1900 nM and 40 nM, respectively.
With `C=CC(=O)NCc1cc(-c2ccc(OC(F)(F)F)cc2)c2ncn(C)c2c1C#C[C@H](O)CO` [Compound 74, (S)—N-((7-(3,4-dihydroxybut-1-yn-1-yl)-1-methyl-4-(4-(trifluoromethoxy)phenyl)-1H-benzo[d]imidazol-6-yl)methyl)acrylamide], the IC50 at TEAD1 is 16 nM; at TEAD3, 340 nM; at TEAD2, 17 nM.
Turning to `C=CC(=O)NCc1nc(-c2ccc(OC(F)(F)F)cc2)c2ncn(C)c2c1[C@@H](O)CO` (single isomer, unassigned) [Compound 71], the IC50 at TEAD4 was determined as 120 nM.
Take `C=CC(=O)NCc1cc(-c2ccc(OC(F)(F)F)cc2)c2c(c1CO)CCO2` [Compound 12, N-((4-(Hydroxymethyl)-7-(4-(trifluoromethoxy)phenyl)-2,3-dihydrobenzofuran-5-yl)methyl)acrylamide]: the IC50 was 18.3 nM on TEAD2 and 15.2 nM at TEAD4.
As to `C=CC(=O)N[C@@H](C)c1cc(-c2ccc(OC(F)(F)F)cc2)c2c(c1CO)CCO2` (single isomer, unassigned) [Compound 18], the IC50 at TEAD4 was 800 nM.
Same read-out and setting: the same measure for `C=CC(=O)N[C@H](C)c1cc(-c2ccc(OC(F)(F)F)cc2)c2c(c1CO)CCO2` (single isomer, unassigned) [Compound 17]: 5700 nM.
Turning to `O=C(CCl)NCc1cc(-c2ccc(OC(F)(F)F)cc2)c2c(c1CO)CCO2` [Compound 25, 2-Chloro-N-((4-(hydroxymethyl)-7-(4-(trifluoromethoxy)phenyl)-2,3-dihydrobenzofuran-5-yl)methyl)acetamide], the IC50 at TEAD1 turned out to be 4.4 nM; against TEAD2, 3.9 nM; at TEAD4 it was 3.7 nM.
As for `C=CC(=O)NCc1cc(-c2ccc(OC(F)(F)F)cc2)c2ncn(C)c2c1[C@H](O)CO` (single isomer, unassigned) [Compound 30], at TEAD4, the IC50 amounted to 53 nM.
Consider `C=CC(=O)NCc1cc(-c2ccc(OC(F)(F)F)cc2)c2ncoc2c1[C@H]1CNC(=O)O1` (single isomer, unassigned) [Compound 111], for which the values for the IC50 on TEAD1, against TEAD2 and at TEAD4 were 160 nM, 70 nM and 290 nM, respectively.
Regarding `C=CC(=O)NCc1cc(-c2ccc(OC(F)(F)F)cc2)c2nccnc2c1[C@@H](O)CO` [Compound 28, N-[[5-[(1R)-1,2-dihydroxyethyl]-8-[4-(trifluoromethoxy)phenyl]quinoxalin-6-yl]methyl]prop-2-enamide], the IC50 at TEAD3 worked out at 390 nM; against TEAD2 it was 15.3 nM.
Take `C=CC(=O)N1CC[C@@H](c2nc(-c3ccc(OC(F)(F)F)cc3)c3ncn(C)c3n2)C1` (single isomer, unassigned) [Compound 122]: the IC50 stood at 93 nM on TEAD1, 580 nM at TEAD3 and 66 nM against TEAD2.
Take `C=CC(=O)N1CC(c2nc(-c3ccc(OC(F)(F)F)cc3)c3ncn(C)c3n2)C1` [Compound 62, 1-[3-[9-methyl-6-[4-(trifluoromethoxy)phenyl]purin-2-yl]azetidin-1-yl]prop-2-en-1-one]: the values for the IC50 at TEAD2 and on TEAD4 were 3.1 nM and 2 nM, respectively.
Consider `C=CC(=O)NCc1nc(-c2ccc(OC(F)(F)F)cc2)c2ncn(C)c2c1[C@H](O)CO` (single isomer, unassigned) [Compound 70], for which the IC50 on TEAD4 worked out at 260 nM.
In the case of `C=CC(=O)NCc1cc(-c2ccc(OC(F)(F)F)cc2)c2ncoc2c1[C@@H]1CNC(=O)O1` (single isomer, unassigned) [Compound 112], the IC50 on TEAD1 is 2400 nM; at TEAD2, 360 nM; on TEAD4, 520 nM.
Turning to `[2H]C([2H])=C([2H])C(=O)NCc1cc(-c2ccc(OC(F)(F)F)cc2)c2c(c1CO)CCO2` [Compound 20, 2,3,3-Trideuterio-N-((4-(hydroxymethyl)-7-(4-(trifluoromethoxy)phenyl)-2,3-dihydrobenzofuran-5-yl)methyl]prop-2-enamide], the IC50 against TEAD2 is 23.5 nM; at TEAD4, 17.5 nM.
`C/C=C/S(=O)(=O)N1CC(c2nc(-c3ccc(OC(F)(F)F)cc3)c3ncn(C)c3n2)C1` [Compound 116, (E)-9-Methyl-2-(1-(prop-1-en-1-ylsulfonyl)azetidin-3-yl)-6-(4-(trifluoromethoxy)phenyl)-9H-purine]: the half-inhibitory concentration (IC50) was found to be 5.3 nM on TEAD1 and 8.7 nM against TEAD2.
As to `O=C(CCl)NCc1nc(-c2ccc(OC(F)(F)F)cc2)c2ncsc2n1` [Compound 15, 2-chloro-N-[[7-[4-(trifluoromethoxy)phenyl]thiazolo[5,4-d]pyrimidin-5-yl]methyl]acetamide], the IC50 is 70 nM at TEAD3, 300 nM against TEAD2 and 5 nM at TEAD4.
Take `C/C=C(\C)C(=O)N1CC(c2nc(-c3ccc(OC(F)(F)F)cc3)c3ncn(C)c3n2)C1` [Compound 120, (E)-2-Methyl-1-(3-(9-methyl-6-(4-(trifluoromethoxy)phenyl)-9H-purin-2-yl)azetidin-1-yl)but-2-en-1-one]: the IC50 against TEAD2 worked out at 840 nM; on TEAD4 it was 220 nM.
As for `C=CC(=O)NCc1cc(-c2ccc(OC(F)(F)F)cc2)c2ncn(C)c2c1C#C[C@@H](O)CO` [Compound 75, (R)-N-((7-(3,4-dihydroxybut-1-yn-1-yl)-1-methyl-4-(4-(trifluoromethoxy)phenyl)-1H-benzo[d]imidazol-6-yl)methyl)acrylamide], the IC50 at TEAD1 was 9 nM; on TEAD3, 160 nM; at TEAD2 it was 13 nM.

The record behind these values is US12275745B2, “Therapeutic compounds and methods of use” (Genentech, Inc., priority 2021, dated 2025).
